Data from patent publication US6410585B1, “Inhibitors of protein tyrosine phosphatase” (priority 1997, dated 2002).
Read-outs that look alike come from different tables or passages of the source.

Biological target: T1, rat PTP1 (Rattus norvegicus, UniProt P20417)
T1 construct: a C-terminal truncation of rat PTP1 (amino acid residues 1-322); GST (N, cleaved yes); made in house; host or cells: E. coli strain TG-1 (pGEX-2T)
T1 sequence (P20417 1-322): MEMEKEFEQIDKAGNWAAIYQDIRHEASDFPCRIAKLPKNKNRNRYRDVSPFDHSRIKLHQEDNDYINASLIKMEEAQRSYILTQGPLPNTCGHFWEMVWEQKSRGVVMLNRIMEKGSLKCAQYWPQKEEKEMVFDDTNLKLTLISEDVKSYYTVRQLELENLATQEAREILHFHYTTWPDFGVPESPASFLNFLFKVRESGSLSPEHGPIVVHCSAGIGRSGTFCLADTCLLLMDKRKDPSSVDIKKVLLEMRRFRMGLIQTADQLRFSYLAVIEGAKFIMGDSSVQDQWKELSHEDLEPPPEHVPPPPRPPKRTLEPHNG
Experiment: PTP1 assay, pNPP hydrolysis (rate of change in A405)
Format: biochemical
Description: PTP1 Assays: A construct, which consisted of a C-terminal truncation of rat PTP1 (amino acid residues 1-322) (cloned from a rat brain library) with an N-terminal glutathione S-transferase (GST) tag and an adjacent thrombin cleavage site, was inserted into vector plasmid pGEX-2T and transformed into E. coli strain TG-1 under the control of a lac promoter (K. L. Guan and J. E. Dixon (1991) Eukaryotic proteins expressed in Escherichia coli: an improved thrombin cleavage and purification procedure of fusion proteins with glutathione S-transferase. Analyt. Biochem. 192: 262-267). The GST-fusion protein was purified on a glutathione agarose affinity column, the GST tag was cleaved with thrombin, and the active enzyme was recovered for use in an assay to identify PTP inhibitors.
PTP1 activity is measured using either p-nitrophenol phosphate (pNPP) or a triphosphopeptide (that matches residues 1142 through 1153 of the β-subunit and the insulin receptor) as substrate in a 96-well microtiter plate format. An assay pH of 7.2 is used for standard assays (measured 405=9800 at pH 7.2).
Standard assays are conducted at room temperature in a total volume of 0.2 ml that contains Hepes buffer (50 mM, pH 7.2), NaCl (50 mM), EDTA (1 mM), DTT (1 mM), bovine serum albumin (1 mg/ml), pNPP (1 mM) and PTP1 (35 ng/ml). Compounds (2 μl of 10 mM solutions) are pipetted into wells of microtiter plates followed by 198 μl of premixed reaction mix (with PTP1 and pNPP added immediately before use). The rate of change in A405 is recorded for 60 min. Two wells on each plate contain DMSO controls and two wells contain sodium orthovanadate (1 mM) which inhibits PTP1-catalyzed hydrolysis of pNPP completely. Data are expressed as percent inhibition relative to the average of the DMSO controls measured on the same microtiter plate.

[1] = Conc 1 uM, pNPP hydrolysis, Table 1, read-out: PTP1 Inhib % Inhib
[2] = Conc 10 uM, pNPP hydrolysis, Table 1, read-out: PTP1 Inhib % Inhib
[3] = Conc 100 uM, pNPP hydrolysis, Table 1, read-out: PTP1 Inhib % Inhib
[4] = Conc 1 uM, pNPP hydrolysis, Table 2, read-out: PTP1 Inhib PTP1N. % Inhib
[5] = Conc 10 uM, pNPP hydrolysis, Table 2, read-out: PTP1 Inhib PTP1N. % Inhib
[6] = Conc 100 uM, pNPP hydrolysis, Table 2, read-out: PTP1 Inhib PTP1N. % Inhib
[7] = inhibition of pNPP-hydrolysis, compound concentration 1 μM, read-out: % Inhibition
[8] = inhibition of pNPP-hydrolysis, compound concentration 10 μM, read-out: % Inhibition
[9] = inhibition of pNPP-hydrolysis, compound concentration 100 μM, read-out: % Inhibition

Row | SMILES | inhibition at 1 µM [1] [%] | inhibition at 10 µM [2] [%] | inhibition at 100 µM [3] [%] | also measured
1 | CCCCCNC(=O)C(Cc1ccc(OC(COO)COO)cc1)NC(=O)CCC(=O)OCc1ccccc1 (stereo not drawn) | 4 | 9 | 39 | 
2 | CCCCCNC(=O)C(Cc1ccc(OC(COO)COO)cc1)NC(=O)NCC(=O)NCC(=O)O (stereo not drawn) |  |  |  | inhibition at 1 µM [4]: 12%; inhibition at 10 µM [5]: 56%; inhibition at 100 µM [6]: 93%
3 | CCCCCNC(=O)C(Cc1ccc(OC(C(=O)O)C(=O)O)c(F)c1)NC(=O)CCC(=O)O (stereo not drawn) |  |  |  | inhibition at 1 µM [4]: 4%; inhibition at 10 µM [5]: 29%; inhibition at 100 µM [6]: 78%
4 | CC(C)CC(CO)NC(=O)C(Cc1ccc(OC(COO)COO)cc1)NC(=O)CCC(=O)O (stereo not drawn) |  |  |  | inhibition at 1 µM [4]: 3%; inhibition at 10 µM [5]: 15%; inhibition at 100 µM [6]: 57%
5 | CC(C)(C)OC(=O)N[C@@H](Cc1ccccc1)C(=O)N[C@@H](Cc1ccc(OCC(=O)O)c(C(=O)O)c1)C(=O)NCCCO [Example 157-21, 5-{(2S)-2-({(2S)-2-[(tert-Butoxycarbonyl)amino]-3-phenylpropanoyl}amino)-3-[(3-hydroxypropyl)amino]-3-oxopropyl}-2-(carboxymethoxy)benzoic Acid] |  |  |  | inhibition at 1 µM [7]: 24%; inhibition at 10 µM [8]: 73%; inhibition at 100 µM [9]: 95%
6 | CCCCCNC(=O)[C@H](Cc1ccc(OC(C(=O)O)C(=O)O)cc1)NC(=O)[C@H](CCC(=O)O)NC(=O)OC(C)(C)C | 5 | 34 | 83 | 
7 | O=C(O)CCC(=O)NC(Cc1ccc(OC(COO)COO)cc1)C(=O)NCc1ccc(C(F)(F)F)cc1 (stereo not drawn) | 4 | 15 | 66 | 
8 | CCCCCNC(=O)C(Cc1ccc(OC(COO)COO)cc1)NC(=O)NCCCCCC(=O)O (stereo not drawn) | 6 | 18 | 63 | 
9 | CCCCCNC(=O)C(Cc1ccc(OC(=CCOO)COO)cc1)NC(=O)CCC(=O)O (stereo not drawn) | 0 | 9 | 50 | 
10 | CCCCCNC(=O)C(Cc1ccc(OC(COO)COO)cc1)NC(=O)C(Cc1ccc(C(=O)c2ccccc2)cc1)NC(=O)CCC(=O)O (stereo not drawn) [drawing 139] |  |  |  | inhibition at 1 µM [4]: 4%; inhibition at 10 µM [5]: 13%; inhibition at 100 µM [6]: 54%
11 | O=C(O)CCC(=O)N[C@@H](Cc1ccc(OC(C(=O)O)C(=O)O)cc1)C(=O)NCC1CCCCC1 | 0 | 21 | 73 | 
12 | O=C(O)CCC(=O)NC(Cc1ccc(OC(COO)COO)cc1)C(=O)NCCOc1ccccc1 (stereo not drawn) | 1 | 13 | 57 | 
13 | O=C(O)COc1ccc(C[C@H](NS(=O)(=O)/C=C/c2ccccc2)C(=O)NCCCCc2ccc(Cl)cc2)cc1C(=O)O [Example 156-7, 2-(carboxymethoxy)-5-[(2S)-3-{[4-(4-chlorophenyl)butyl]amino}-3-oxo-2-({[(E)-2-phenylethenyl]sulfonyl}amino)propyl]benzoic acid] |  |  |  | inhibition at 1 µM [7]: 18%; inhibition at 10 µM [8]: 69%; inhibition at 100 µM [9]: 95%
14 | O=C(O)COc1ccc(C[C@H](NC(=O)c2ccccc2)C(=O)NCCCCc2ccccc2)cc1C(=O)O [Example 154-8, 5-{(2S)-2-(benzoylamino)-3-oxo-3-[(4-phenylbutyl)amino]propyl}-2-(carboxymethoxy)benzoic acid] |  |  |  | inhibition at 1 µM [7]: 30%; inhibition at 10 µM [8]: 81%; inhibition at 100 µM [9]: 97%
15 | CCCCCNC(=O)[C@H](Cc1ccc(OC(C(=O)O)C(=O)O)cc1)NC(=O)CCC(N)=O | 0 | 11 | 51 | 
16 | O=C(O)COc1ccc(C[C@H](NC(=O)c2ccc(Cl)cc2)C(=O)NCCCCc2ccccc2)cc1C(=O)O [Example 154-9, 2-(carboxymethoxy)-5-{(2S)-2-[(4-chlorobenzoyl)amino]-3-oxo-3-[(4-phenylbutyl)amino]propyl}benzoic acid] |  |  |  | inhibition at 1 µM [7]: 37%; inhibition at 10 µM [8]: 85%; inhibition at 100 µM [9]: 97%
17 | CC(C)(C)OC(=O)N[C@@H](Cc1ccccc1)C(=O)N[C@@H](Cc1ccc(OCC(=O)O)c(C(=O)O)c1)C(=O)NCCO [Example 157-3, 5-{(2S)-2-({(2S)-2-[(tert-Butoxycarbonyl)amino]-3-phenylpropanoyl}amino)-3-[(2-hydroxyethyl)amino]-3-oxopropyl}-2-(carboxymethoxy)benzoic] |  |  |  | % Inhibition (inhibition of pNPP-hydrolysis, compound concentration 1 μM): 22%; % Inhibition (inhibition of pNPP-hydrolysis, compound concentration 10 μM): 72%; % Inhibition (inhibition of pNPP-hydrolysis, compound concentration 100 μM): 94%
18 | CCCCCNC(=O)[C@H](Cc1ccc(OC(C(=O)O)C(=O)O)cc1)NC(=O)C(CC(=O)O)NC(=O)OCc1ccccc1 (stereo partly drawn) | 10 | 51 | 90 | 
19 | CCCCCNC(=O)[C@H](Cc1ccc(OC(C(=O)O)C(=O)O)cc1)NC(=O)CC(=O)O | 4 | 20 | 74 | 
20 | CCCC[C@H](NC(=O)[C@H](Cc1ccc(OC(C(=O)O)C(=O)O)cc1)NC(=O)CCC(=O)O)C(N)=O | 16 | 63 | 93 | 
21 | CC(C)(C)OC(=O)N[C@@H](Cc1ccccc1)C(=O)N[C@@H](Cc1ccc(OCC(=O)O)c(C(=O)O)c1)C(=O)NCCCCc1ccccc1 [Example 157-2, 5-{(2S)-2-({(2S)-2-[(tert-Butoxycarbonyl)amino]-3-phenylpropanoyl}amino)-3-oxo-3-[(4-phenylbutyl)amino]propyl}-2-(carboxymethoxy)benzoic Acid] |  |  |  | inhibition at 1 µM [7]: 64%; inhibition at 10 µM [8]: 93%; inhibition at 100 µM [9]: 98%
22 | CCCCCNC(=O)C(Cc1ccc(OC(COO)COO)cc1)NC(=O)C(Cc1ccc(OCc2c(Cl)cccc2Cl)cc1)NC(=O)OC(C)(C)C (stereo not drawn) |  |  |  | inhibition at 1 µM [4]: 3%; inhibition at 10 µM [5]: 12%; inhibition at 100 µM [6]: 85%
23 | O=C(O)COc1ccc(C[C@H](NC(=O)c2ccoc2)C(=O)NCCCCc2ccccc2)cc1C(=O)O [Example 154-15, 2-(carboxymethoxy)-5-{(2S)-2-(3-furoylamino)-3-oxo-3-[(4-phenylbutyl)amino]propyl}benzoic acid] |  |  |  | inhibition at 1 µM [7]: 80%; inhibition at 10 µM [8]: 31%; inhibition at 100 µM [9]: 97%
24 | CCCCCNC(=O)C(Cc1ccc(OCC(=O)O)c(COO)c1)NC(=O)CCC(=O)O (stereo not drawn) | 17 | 63 | 93 | 
25 | CCOC(CNC(=O)[C@H](Cc1ccc(OC(C(=O)O)C(=O)O)cc1)NC(=O)CCC(=O)O)OCC | 0 | 7 | 46 | 
26 | CCCCCNC(=O)[C@H](Cc1ccc(OC(C(=O)O)C(=O)O)cc1)NC(=O)[C@H](CCC(=O)O)NC(=O)CCC(=O)O | 25 | 76 | 96 | 
27 | CCCCCCNC(=O)[C@H](Cc1ccc(OC(C(=O)O)C(=O)O)cc1)NC(=O)CCC(=O)O | 3 | 17 | 74 | 
28 | CC(C)CCNC(=O)[C@H](Cc1ccc(OC(C(=O)O)C(=O)O)cc1)NC(=O)CCC(=O)O | 0 | 6 | 48 | 
29 | O=C(O)COc1ccc(C[C@H](NC(=O)c2ccccc2)C(=O)NCCCCc2ccc(Cl)cc2)cc1C(=O)O [Example 154-19, 5-((2S)-2-(benzoylamino)-3-{[4-(4-chlorophenyl)butyl]amino}-3-oxopropyl)-2-(carboxymethoxy)benzoic acid] |  |  |  | inhibition at 1 µM [7]: 40%; inhibition at 10 µM [8]: 55%; inhibition at 100 µM [9]: 98%
